# From patent US9434994B2, “Methods for prediction of clinical outcome to epidermal growth factor receptor inhibitors by non-small cell lung cancer patients” (The Regents of the University of Colorado, a body corporate, priority 2004, dated 2016)
# Where “and” joins values, the source holds several entries; their conditions need not be identical. Equal entries are not always repeated. Where two headings read alike, the source gives them in different places.
# Tested on: advanced non-small-cell lung cancer patients
# [1] = EGFR FISH Group 1 (disomy to low polysomy)
# [2] = EGFR FISH Group 2 (high polysomy, amplification)
# [3] = EGFR FISH- and/or P-Akt- (any negative)
# [4] = EGFR IHC- and/or P-Akt- (any negative)
# [5] = EGFR mutation- and/or P-Akt- (any negative)
# [6] = HER2 FISH+ and/or EGFR IHC+ (other three groups combined)
# Procedure: Eligibility included histologically confirmed NSCLC patients with measurable, locally advanced or metastatic disease, who had progressed or relapsed after chemotherapy, and patients ineligible for chemotherapy because they were elderly, had poor performance status, or comorbid medical condition. Before trial inclusion, smoking status was assessed and patients were classified as never, former (smoking cessation >6 months prior to trial inclusion), or current smokers (cessation <6 months before trial inclusion or active smoker).
# Patients were evaluated for response according to the RECIST criteria (30). Tumor response was assessed by computer tomography scan every two months, with a confirmatory evaluation to be repeated in responding patients at least 4 weeks after the initial determination of response. […] Survival (OS) was calculated from the date of therapy initiation to the date of death or last contact.
# Differences between the FISH groups were compared by Fisher's exact test or χ^2 test for qualitative variables and by t-student test or ANOVA for continuous variables. Normality of the distribution was assessed by Kolmogorov-Smirnov test. […] Risk factors associated with survival were evaluated using Cox's proportional-hazards regression model with a step-down procedure (33). Only those variables with significant results in univariate analysis were included in the multivariate analysis. The criteria for variable removal was the likelihood ratio statistic based on the maximum partial likelihood estimated (default p-value=0.10 for removal from the model).
# Complete clinical information and tissue blocks were available from 80 out of 106 patients enrolled in the Akt clinical trial (Cappuzzo et al., ibid.), and from an additional 22 patients in the Expanded Access Study who were treated consecutively at the end of the Akt study and followed in the same way as patients in the Akt trial.
# Eligibility for both studies included histologically confirmed NSCLC with measurable, locally advanced or metastatic disease, progressing or relapsing after chemotherapy or with medical contraindications for chemotherapy. Patients had performance status ranging from grade 0 to 2. Performance status was defined according to Eastern Cooperative Oncology Group (Oken et al., 1982) and considered grade 0 when the patient was fully active and able to perform all pre-disease activities without restriction, grade 1 when the patient was restricted in physically strenuous activity but ambulatory and able to perform work of a light or sedentary nature, and grade 2 when the patient was ambulatory and capable of all self-care but unable to perform any work activities.
# Tumor response was assessed by computer tomography scan after 2 months, with a confirmatory evaluation to be repeated in responders and in patients with stable disease at least 4 weeks after the initial determination of response. […] Survival was calculated from the date of therapy initiation to the date of death or to the date of last contact.
# Differences between and among groups were compared using Fisher's exact test or Pearson's chi square test for qualitative variables and using student's t test or analysis of variance for continuous variables. Normality of the distribution was assessed using the Kolmogorov-Smirnov test (Curiel et al., 1990).
smiles,measurement,setting,value
COc1cc2ncnc(Nc3ccc(F)c(Cl)c3)c2cc1OCCCN1CCOCC1 [gefitinib],Patients progressed at 12 months,EGFR FISH Group 1,91%
same,Two-year survival rate,EGFR FISH Group 1,17%
same,% Patients without disease progression at 12 months,[1],8.7%
same,Complete and Partial Response,[1],2.9%
same,Median Time to Progression,[1],2.5 months
same,One-year Survival Rate,[1],36.2%
same,Progressive Disease,[1],73.9%
same,Stable Disease,[1],23.2%
same,Patients progressed at 12 months,EGFR FISH Group 2,61%
same,Two-year survival rate,EGFR FISH Group 2,40%
same,% Patients without disease progression at 12 months,[2],39.4%
same,Complete and Partial Response,[2],36% and 36.4%
same,Disease Control Rate,[2],66.7%
same,Median Time to Progression,[2],6.3 months
same,One-year Survival Rate,[2],63.6%
same,Progressive Disease,[2],33.3%
same,Stable Disease,[2],30.3%
same,% Patients without disease progression at 12 months,EGFR FISH disomy,8.3%
same,Complete and Partial Response,EGFR FISH disomy,no responders
same,Median Time to Progression,EGFR FISH disomy,2.5 months
same,One-year Survival Rate,EGFR FISH disomy,38.9%
same,Progressive Disease,EGFR FISH disomy,75%
same,Stable Disease,EGFR FISH disomy,25.0%
same,% Patients without disease progression at 12 months,EGFR FISH high polysomy,35.0%
same,Disease Control Rate,EGFR FISH high polysomy,60.0%
same,Median Time to Progression,EGFR FISH high polysomy,6.6 months
same,One-year Survival Rate,EGFR FISH high polysomy,65.0%
same,Progressive Disease,EGFR FISH high polysomy,40%
same,Stable Disease,EGFR FISH high polysomy,35%
same,% Patients without disease progression at 12 months,EGFR FISH high trisomy,100%
same,Complete and Partial Response,EGFR FISH high trisomy,100%
same,Disease Control Rate,EGFR FISH high trisomy,100%
same,Median Overall Survival,EGFR FISH high trisomy,13.7 months
same,One-year Survival Rate,EGFR FISH high trisomy,100%
same,% Patients without disease progression at 12 months,EGFR FISH low polysomy,0%
same,Complete and Partial Response,EGFR FISH low polysomy,no responders
same,Disease Control Rate,EGFR FISH low polysomy,14.3%
same,Median Overall Survival,EGFR FISH low polysomy,3.0 months
same,Median Time to Progression,EGFR FISH low polysomy,2.1 months
same,Progressive Disease,EGFR FISH low polysomy,86% and 85.7%
same,Stable Disease,EGFR FISH low polysomy,14.3%
same,% Patients without disease progression at 12 months,EGFR FISH low trisomy,5.9%
same,Complete and Partial Response,EGFR FISH low trisomy,no responders
same,Disease Control Rate,EGFR FISH low trisomy,29.4%
same,Median Overall Survival,EGFR FISH low trisomy,10.2 months
same,Median Time to Progression,EGFR FISH low trisomy,3.6 months
same,One-year Survival Rate,EGFR FISH low trisomy,41.2%
same,Progressive Disease,EGFR FISH low trisomy,71% and 70.6%
same,Stable Disease,EGFR FISH low trisomy,29.4%
same,1-year Cumulative Survival ± SD,EGFR FISH+/P-Akt+,33 ± 9%
same,Median Survival,EGFR FISH+/P-Akt+,18.7 months
same,1-year Cumulative Survival ± SD,EGFR FISH+/P-Akt-,75 ± 22%
same,Median Time to Progression,EGFR FISH+/P-Akt-,1.1 months
same,Objective Response,EGFR FISH+/P-Akt-,0%
same,Disease Control Rate,[3],28% and 19/27%
same,Median Time to Progression,[3],2.5 months
same,Objective Response,[3],3% and 2/3%
same,Median Time to Progression,EGFR FISH-/P-Akt+,2.6 months
same,Objective Response,EGFR FISH-/P-Akt+,5% and 2/5%
same,1-year Cumulative Survival ± SD,EGFR FISH-/P-Akt-,57 ± 9%
same,Disease Control Rate,EGFR FISH-/P-Akt-,6/22%
same,Median Time to Progression,EGFR FISH-/P-Akt-,2.4 months
same,Objective Response,EGFR FISH-/P-Akt-,0%
same,1-year survival,EGFR IHC score 0-99,27% and 27 ± 10%
same,MS (median overall survival),EGFR IHC score 0-99,4.5 mo
same,PD (progressive disease),EGFR IHC score 0-99,19 (95%)
same,TTP,EGFR IHC score 0-99,2.1 mo
same,1-year survival,EGFR IHC score 100-199,35% and 35 ± 10%
same,MS (median overall survival),EGFR IHC score 100-199,5.3 mo
same,OR (objective response),EGFR IHC score 100-199,2 (10%)
same,TTP,EGFR IHC score 100-199,2.3 mo
same,MS (median overall survival),EGFR IHC score 200-299,15.2 mo
same,OR (objective response),EGFR IHC score 200-299,4 (26%)
same,PD (progressive disease),EGFR IHC score 200-299,5 (33%)
same,MS (median overall survival),EGFR IHC score 300-400,11.3 mo
same,PD (progressive disease),EGFR IHC score 300-400,21 (49%)
same,TTP,EGFR IHC score 300-400,4.5 mo
same,1-year survival,EGFR IHC+ (≧200),48 ± 7%
same,MS (median overall survival),EGFR IHC+ (≧200),11.5 mo
same,TTP,EGFR IHC+ (≧200),5.2 mo
same,Median Time to Progression,EGFR IHC+/P-Akt+,6.2 months
same,1-year Cumulative Survival ± SD,EGFR IHC+/P-Akt-,35 ± 12%
same,Median Time to Progression,EGFR IHC+/P-Akt-,1.8 months
same,Objective Response,EGFR IHC+/P-Akt-,0%
same,1-year survival,EGFR IHC- (<200),31 ± 7%
same,MS (median overall survival),EGFR IHC- (<200),5.0 mo
same,TTP,EGFR IHC- (<200),2.3 mo
same,1-year Cumulative Survival ± SD,[4],35 ± 7%
same,Median Time to Progression,[4],2.3 months
same,Objective Response,[4],4% and 2/3%
same,Disease Control Rate,EGFR IHC-/P-Akt+,7/27%
same,Median Time to Progression,EGFR IHC-/P-Akt+,2.3 months
same,Objective Response,EGFR IHC-/P-Akt+,2/8%
same,1-year Cumulative Survival ± SD,EGFR IHC-/P-Akt-,54 ± 8%
same,Disease Control Rate,EGFR IHC-/P-Akt-,1/7%
same,Median Survival,EGFR IHC-/P-Akt-,4.2 months
same,Median Time to Progression,EGFR IHC-/P-Akt-,2.0 months
same,Objective Response,EGFR IHC-/P-Akt-,0%
same,Median Survival,EGFR Mutation+/P-Akt+,20.8 months
same,Median Time to Progression,EGFR Mutation+/P-Akt+,11.2 months
same,Disease Control Rate,EGFR Mutation+/P-Akt-,0%
same,Median Survival,EGFR Mutation+/P-Akt-,3.1 months
same,Median Time to Progression,EGFR Mutation+/P-Akt-,1.1 months
same,Objective Response,EGFR Mutation+/P-Akt-,0%
same,1-year Cumulative Survival ± SD,EGFR Mutation-/P-Akt+,50 ± 35%
same,Median Time to Progression,EGFR Mutation-/P-Akt+,2.7 months
same,Objective Response,EGFR Mutation-/P-Akt+,4/9%
same,1-year Cumulative Survival ± SD,EGFR Mutation-/P-Akt-,65 ± 14%
same,Disease Control Rate,EGFR Mutation-/P-Akt-,6/22%
same,Median Time to Progression,EGFR Mutation-/P-Akt-,2.4 months
same,Objective Response,EGFR Mutation-/P-Akt-,0%
same,% Patients without disease progression at 12 months,EGFR gene amplification,46.2%
same,Complete and Partial Response,EGFR gene amplification,53.8% and 54%
same,Disease Control Rate,EGFR gene amplification,76% and 76.9%
same,Median Time to Progression,EGFR gene amplification,6.0 months
same,One-year Survival Rate,EGFR gene amplification,61.5%
same,Progressive Disease,EGFR gene amplification,23.1%
same,Stable Disease,EGFR gene amplification,23.1%
same,1-year survival,EGFR mutation absent,38 ± 6
same,PD,EGFR mutation absent,50 (68%)
same,TTP,EGFR mutation absent,2.6 mo
same,1-year survival,EGFR mutation present,57 ± 13
same,MS,EGFR mutation present,20.8 mo
same,TTP,EGFR mutation present,9.9 mo
same,Disease Control Rate,[5],32% and 23/31%
same,Median Time to Progression,[5],2.6 months
same,Objective Response,[5],6% and 4/5%
same,DCR,HER2 FISH+,56.5%
same,OR,HER2 FISH+,34.8%
same,OS,HER2 FISH+,20.8 months
same,TTP,HER2 FISH+,9.05 months
same,DCR,HER2 FISH+ and/or EGFR FISH+,57.1%
same,OR,HER2 FISH+ and/or EGFR FISH+,28.6%
same,DCR,[6],51.5%
same,OR,[6],19.1%
same,OR,HER2 FISH+ and/or EGFR mutation+ (other groups combined),30.8%
same,DCR,HER2 FISH+/EGFR FISH+,76.9%
same,OR,HER2 FISH+/EGFR FISH+,53.8%
same,median OS,HER2 FISH+/EGFR FISH+,20.8 months
same,median TTP,HER2 FISH+/EGFR FISH+,9.8 months
same,OR,HER2 FISH+/EGFR FISH-,21.0%
same,median TTP,HER2 FISH+/EGFR FISH-,2.3 months
same,DCR,HER2 FISH+/EGFR IHC+,76.9%
same,OR,HER2 FISH+/EGFR IHC+,53.8%
same,OS,HER2 FISH+/EGFR IHC+,20.8 months
